Usually IC50 stands for the concentration that gives 50% inhibition.

SMILES strings stand for the structures.

For data set [1], the system named is Madracis mirabilis. In words: Toxicity against Madracis mirabilis polyps assessed as mortality at 10 ug/ml after 2 hrs. To be noted: in vivo.
The subject of data set [2] is P388. Briefly: Cytotoxicity against mouse P388 cells. The format is functional, cell-based.
Data set [3] relates to Madracis mirabilis. In words: Toxicity against Madracis mirabilis polyps assessed as mortality at 7.75 ug/ml after 2 hrs. To be noted: in vivo.
Data set [4] has as its system HT-29. Briefly: Cytotoxicity against human HT-29 cells. The format is functional, cell-based.
Data set [5] can be described thus: Toxicity against Madracis mirabilis polyps assessed as mortality after 2 hrs. It counts as organism-based. To be noted: in vivo; read-out: LD50.
Data set [6] relates to A549. In words: Cytotoxicity against human A549 cells. It counts as functional, cell-based.
In data set [7] the test system is Madracis mirabilis. In words: Toxicity against Madracis mirabilis assessed as retracted polyps at 10 ug/ml after 24 hrs. The note with it: in vivo.
Data set [8] concerns Madracis mirabilis. Briefly: Toxicity against Madracis mirabilis assessed as retraction recovery at 10 ug/ml after 48 hrs. The note with it: in vivo.

As for `C=C(C)[C@H]1CC[C@@]2(C)CCC[C@@](C)(N)[C@@H]2C1.Cl` (relative stereo), the Activity entry in data set [1] is given as “Toxic”; in data set [3] it was “Non-toxic”. The IC50 in data set [2], in data set [4] and in data set [6] was 2 µg/mL throughout. In addition, in data set [5], the LC50 at 2 h was 9.4 µg/mL.
For `C=C(C)[C@H]1CC[C@@]2(C)CCC[C@@](C)(N)[C@@H]2C1` (relative stereo), the Activity result in data set [7] is listed as “Active”; in data set [8] it was 40%.

The values above are taken from ChEMBL document CHEMBL1150588, “New nitrogenous eudesmane-type compounds isolated from the Caribbean sponge Axinyssa ambrosia” (J Nat Prod, 2002).
